Data taken from paper PMC4904262 (ACS Medicinal Chemistry Letters, 2016).

Assays:
Settings in all cases: 1 µM, ATP at Km
IGF-1R, ACTIVATED = IGF-1R, ACTIVATED (Homo sapiens, UniProt P08069)
SRPK2 = SRPK2 (Homo sapiens, UniProt P78362)
HIPK2 = HIPK2 (Homo sapiens, UniProt Q9H2X6)
TSSK2 = TSSK2 (Homo sapiens, UniProt Q96PF2)
PKBBETA = PKBBETA (Homo sapiens, UniProt P31751)
GSK3BETA = GSK3BETA (Homo sapiens, UniProt P49841)
PI3 KINASE (P85A) = PI3 KINASE (P85A) (Homo sapiens, UniProt P42336)
FER = FER (Homo sapiens, UniProt P16591)
Sequence of FER (P16591 whole entry): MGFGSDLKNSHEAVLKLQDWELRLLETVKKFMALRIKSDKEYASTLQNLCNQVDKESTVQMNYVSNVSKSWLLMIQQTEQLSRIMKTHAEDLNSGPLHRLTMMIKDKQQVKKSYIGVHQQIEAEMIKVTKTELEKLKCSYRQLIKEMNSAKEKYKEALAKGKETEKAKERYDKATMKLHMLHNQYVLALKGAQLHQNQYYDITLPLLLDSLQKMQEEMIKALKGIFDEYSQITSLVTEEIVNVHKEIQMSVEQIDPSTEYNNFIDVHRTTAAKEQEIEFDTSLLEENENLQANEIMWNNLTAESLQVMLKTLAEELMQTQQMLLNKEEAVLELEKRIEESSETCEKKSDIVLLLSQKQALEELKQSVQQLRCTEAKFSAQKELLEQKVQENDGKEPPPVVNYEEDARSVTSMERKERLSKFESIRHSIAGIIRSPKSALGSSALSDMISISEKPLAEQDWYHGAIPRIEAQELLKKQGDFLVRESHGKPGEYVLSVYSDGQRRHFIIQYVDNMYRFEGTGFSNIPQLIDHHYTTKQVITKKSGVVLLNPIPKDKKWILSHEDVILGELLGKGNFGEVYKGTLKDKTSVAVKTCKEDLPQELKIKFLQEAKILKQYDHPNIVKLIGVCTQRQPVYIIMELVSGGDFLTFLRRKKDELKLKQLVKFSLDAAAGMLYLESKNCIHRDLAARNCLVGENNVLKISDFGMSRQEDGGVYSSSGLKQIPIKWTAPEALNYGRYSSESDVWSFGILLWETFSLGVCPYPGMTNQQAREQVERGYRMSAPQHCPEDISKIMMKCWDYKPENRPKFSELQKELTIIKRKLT

PHKGAMMA2 = PHKGAMMA2 (Homo sapiens, UniProt P15735)
CK1GAMMA2 = CK1GAMMA2 (Homo sapiens, UniProt P78368)
ITK = ITK (Homo sapiens, UniProt Q08881)
AXL = AXL (Homo sapiens, UniProt P30530)
HIPK1 = HIPK1 (Homo sapiens, UniProt Q86Z02)
VRK2 = VRK2 (Homo sapiens, UniProt Q86Y07)
CLK3 = CLK3 (Homo sapiens, UniProt P49761)
Sequence of CLK3 (P49761 whole entry): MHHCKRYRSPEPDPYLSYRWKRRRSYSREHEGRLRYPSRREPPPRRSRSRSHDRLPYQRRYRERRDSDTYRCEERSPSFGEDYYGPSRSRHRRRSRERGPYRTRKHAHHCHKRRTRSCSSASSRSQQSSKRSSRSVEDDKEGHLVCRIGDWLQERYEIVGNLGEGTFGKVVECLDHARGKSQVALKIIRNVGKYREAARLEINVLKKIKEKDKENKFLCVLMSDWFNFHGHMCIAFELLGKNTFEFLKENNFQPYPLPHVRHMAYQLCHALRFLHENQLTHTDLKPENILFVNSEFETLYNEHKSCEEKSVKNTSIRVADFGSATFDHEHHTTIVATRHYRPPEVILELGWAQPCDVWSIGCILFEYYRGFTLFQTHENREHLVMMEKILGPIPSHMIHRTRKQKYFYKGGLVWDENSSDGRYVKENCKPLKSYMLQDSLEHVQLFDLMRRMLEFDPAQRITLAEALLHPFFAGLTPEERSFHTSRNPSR

SGK2 = SGK2 (Homo sapiens, UniProt Q9HBY8)
BLK = BLK (Homo sapiens, UniProt P51451)
CDK3/CYCLINE = CDK3/CYCLINE (Homo sapiens, UniProt Q00526)
RON = RON (Homo sapiens, UniProt Q04912)
MEK1 = MEK1 (Homo sapiens, UniProt Q02750)
CDK2/CYCLINA = CDK2/CYCLINA (Homo sapiens, UniProt P24941)
PKBALPHA = PKBALPHA (Homo sapiens, UniProt P31749)
PLK1 = PLK1 (Homo sapiens, UniProt P53350)
GCK = GCK (Homo sapiens, UniProt Q12851)
PAK6 = PAK6 (Homo sapiens, UniProt Q9NQU5)
PKD2 = PKD2 (Homo sapiens, UniProt Q9BZL6)
PI3K DELTA = PI3K DELTA (Homo sapiens, UniProt O00329)
Sequence of PI3K DELTA (O00329 whole entry): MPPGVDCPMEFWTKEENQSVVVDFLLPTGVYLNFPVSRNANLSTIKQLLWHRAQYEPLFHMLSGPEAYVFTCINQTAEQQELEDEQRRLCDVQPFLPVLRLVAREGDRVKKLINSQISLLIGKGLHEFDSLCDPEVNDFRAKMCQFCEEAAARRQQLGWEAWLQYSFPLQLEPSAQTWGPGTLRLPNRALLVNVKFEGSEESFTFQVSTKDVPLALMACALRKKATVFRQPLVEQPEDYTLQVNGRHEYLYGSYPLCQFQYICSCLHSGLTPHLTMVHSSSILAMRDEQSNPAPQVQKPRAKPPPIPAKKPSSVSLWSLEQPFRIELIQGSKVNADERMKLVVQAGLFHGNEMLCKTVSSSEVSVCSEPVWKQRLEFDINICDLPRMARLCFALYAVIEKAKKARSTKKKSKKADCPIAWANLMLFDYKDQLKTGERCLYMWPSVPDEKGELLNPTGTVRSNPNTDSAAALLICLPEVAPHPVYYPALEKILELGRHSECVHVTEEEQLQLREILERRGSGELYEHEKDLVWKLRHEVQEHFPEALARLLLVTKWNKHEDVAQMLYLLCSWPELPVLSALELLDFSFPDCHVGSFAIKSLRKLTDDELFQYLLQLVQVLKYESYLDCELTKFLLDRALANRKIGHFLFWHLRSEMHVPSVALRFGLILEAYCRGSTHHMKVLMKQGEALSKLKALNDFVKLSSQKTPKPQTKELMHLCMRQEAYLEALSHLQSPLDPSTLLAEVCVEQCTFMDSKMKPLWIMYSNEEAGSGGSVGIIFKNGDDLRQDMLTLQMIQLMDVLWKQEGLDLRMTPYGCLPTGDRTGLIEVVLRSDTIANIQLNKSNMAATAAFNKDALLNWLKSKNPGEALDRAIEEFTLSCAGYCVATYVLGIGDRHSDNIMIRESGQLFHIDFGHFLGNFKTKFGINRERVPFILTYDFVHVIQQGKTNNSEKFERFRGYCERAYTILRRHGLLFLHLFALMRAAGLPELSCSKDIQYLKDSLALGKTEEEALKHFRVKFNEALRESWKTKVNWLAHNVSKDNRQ
Sequence of PI3K DELTA (P27986 whole entry partner): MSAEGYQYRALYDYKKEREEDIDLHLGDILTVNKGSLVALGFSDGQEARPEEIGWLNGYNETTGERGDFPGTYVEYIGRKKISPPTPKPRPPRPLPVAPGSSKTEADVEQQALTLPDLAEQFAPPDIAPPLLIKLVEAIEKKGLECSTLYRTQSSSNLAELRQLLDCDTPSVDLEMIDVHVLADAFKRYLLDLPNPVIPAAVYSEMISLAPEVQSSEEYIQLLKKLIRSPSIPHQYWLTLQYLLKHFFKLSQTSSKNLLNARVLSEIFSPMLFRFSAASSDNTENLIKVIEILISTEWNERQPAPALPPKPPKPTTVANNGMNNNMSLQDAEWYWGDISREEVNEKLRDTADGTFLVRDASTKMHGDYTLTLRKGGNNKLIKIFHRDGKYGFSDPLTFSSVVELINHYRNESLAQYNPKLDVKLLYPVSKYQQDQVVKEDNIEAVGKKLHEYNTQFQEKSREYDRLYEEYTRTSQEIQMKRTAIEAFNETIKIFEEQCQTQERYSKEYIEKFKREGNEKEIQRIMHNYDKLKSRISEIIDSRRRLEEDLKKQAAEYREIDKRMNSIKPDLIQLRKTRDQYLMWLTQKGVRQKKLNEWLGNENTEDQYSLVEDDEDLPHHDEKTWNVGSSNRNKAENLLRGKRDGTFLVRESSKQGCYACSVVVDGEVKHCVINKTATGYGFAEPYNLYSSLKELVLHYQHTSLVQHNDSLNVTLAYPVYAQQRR

ALK4 = ALK4 (Homo sapiens, UniProt P36896)
IGF-1R = IGF-1R (Homo sapiens, UniProt P08069)
JAK2 = JAK2 (Homo sapiens, UniProt O60674)
MINK = MINK (Homo sapiens, UniProt Q8N4C8)
PRKX = PRKX (Homo sapiens, UniProt P51817)
ZAP-70 = ZAP-70 (Homo sapiens, UniProt P43403)
JAK3 = JAK3 (Homo sapiens, UniProt P52333)
BRSK2 = BRSK2 (Homo sapiens, UniProt Q8IWQ3)
CSK = CSK (Homo sapiens, UniProt P41240)
ACK1 = ACK1 (Homo sapiens, UniProt Q07912)
WNK3 = WNK3 (Homo sapiens, UniProt Q9BYP7)
PKCBII = PKCBII (Homo sapiens, UniProt P05771)
TAO2 = TAO2 (Homo sapiens, UniProt Q9UL54)
CRAF = CRAF (Homo sapiens, UniProt P04049)
EPHA7 = EPHA7 (Homo sapiens, UniProt Q15375)
Sequence of EPHA7 (Q15375 28-998): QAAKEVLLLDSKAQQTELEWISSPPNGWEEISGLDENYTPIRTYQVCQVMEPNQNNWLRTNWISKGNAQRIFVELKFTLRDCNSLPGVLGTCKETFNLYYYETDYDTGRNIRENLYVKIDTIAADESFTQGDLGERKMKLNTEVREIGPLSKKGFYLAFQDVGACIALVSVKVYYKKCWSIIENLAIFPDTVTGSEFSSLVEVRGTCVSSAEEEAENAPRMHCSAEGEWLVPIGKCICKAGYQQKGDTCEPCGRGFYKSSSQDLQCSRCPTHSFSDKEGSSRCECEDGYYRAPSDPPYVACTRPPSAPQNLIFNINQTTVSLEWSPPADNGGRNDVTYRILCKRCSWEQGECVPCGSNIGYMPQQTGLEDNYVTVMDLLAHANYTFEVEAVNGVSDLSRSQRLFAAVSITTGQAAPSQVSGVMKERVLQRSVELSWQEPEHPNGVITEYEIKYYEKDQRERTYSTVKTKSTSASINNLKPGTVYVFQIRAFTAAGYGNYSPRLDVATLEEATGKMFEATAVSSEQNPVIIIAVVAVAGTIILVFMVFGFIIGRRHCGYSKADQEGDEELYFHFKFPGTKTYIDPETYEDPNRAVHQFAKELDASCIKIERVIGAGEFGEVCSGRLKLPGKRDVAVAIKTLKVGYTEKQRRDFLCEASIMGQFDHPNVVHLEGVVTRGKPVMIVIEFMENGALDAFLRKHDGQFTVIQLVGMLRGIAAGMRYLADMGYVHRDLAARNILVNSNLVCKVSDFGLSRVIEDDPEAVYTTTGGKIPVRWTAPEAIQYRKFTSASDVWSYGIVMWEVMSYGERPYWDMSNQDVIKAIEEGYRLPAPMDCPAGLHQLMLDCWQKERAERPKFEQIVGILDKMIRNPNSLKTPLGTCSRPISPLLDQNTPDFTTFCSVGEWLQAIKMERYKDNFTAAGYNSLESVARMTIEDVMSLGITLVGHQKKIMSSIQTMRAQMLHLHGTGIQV

WNK2 = WNK2 (Homo sapiens, UniProt Q9Y3S1)
BMX = BMX (Homo sapiens, UniProt P51813)
PDK1 = PDK1 (Homo sapiens, UniProt O15530)
Sequence of PDK1 (O15530 whole entry): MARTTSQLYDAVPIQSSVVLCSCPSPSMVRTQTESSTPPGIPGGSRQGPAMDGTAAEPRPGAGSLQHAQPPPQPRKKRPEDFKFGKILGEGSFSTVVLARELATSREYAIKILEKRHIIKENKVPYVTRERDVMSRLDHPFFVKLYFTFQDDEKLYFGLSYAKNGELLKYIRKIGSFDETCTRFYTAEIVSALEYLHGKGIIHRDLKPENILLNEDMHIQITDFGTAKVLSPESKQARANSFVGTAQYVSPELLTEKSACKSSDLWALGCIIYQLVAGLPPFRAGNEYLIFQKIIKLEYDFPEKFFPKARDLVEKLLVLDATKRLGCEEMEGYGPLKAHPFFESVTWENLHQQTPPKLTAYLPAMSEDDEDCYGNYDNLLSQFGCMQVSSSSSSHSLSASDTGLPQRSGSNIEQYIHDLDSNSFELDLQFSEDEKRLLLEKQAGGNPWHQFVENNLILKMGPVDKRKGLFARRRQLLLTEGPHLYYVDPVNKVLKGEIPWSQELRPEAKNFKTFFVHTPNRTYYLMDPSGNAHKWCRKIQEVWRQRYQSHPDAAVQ

Sequence of TSSK2 (Q96PF2 whole entry): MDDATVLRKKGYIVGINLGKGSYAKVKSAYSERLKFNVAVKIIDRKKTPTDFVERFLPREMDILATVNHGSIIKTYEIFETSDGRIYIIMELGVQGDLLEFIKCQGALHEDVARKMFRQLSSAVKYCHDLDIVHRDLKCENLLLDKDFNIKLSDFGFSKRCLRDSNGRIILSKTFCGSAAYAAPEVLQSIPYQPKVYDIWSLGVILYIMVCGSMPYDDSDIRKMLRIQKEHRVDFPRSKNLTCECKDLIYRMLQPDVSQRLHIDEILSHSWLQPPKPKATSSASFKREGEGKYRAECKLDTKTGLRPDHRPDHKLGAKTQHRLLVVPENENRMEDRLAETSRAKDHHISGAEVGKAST

## COC1CN(C(=O)c2ccc3c(N)ncc(-c4ccc(-c5cnn(C)c5)cc4)c3c2)C1 [Compound 59]
IGF-1R, ACTIVATED
  percentage effect: -10%
SRPK2
  percentage effect: -2%
HIPK2
  percentage effect: 16%
TSSK2
  percentage effect: -26%
PKBBETA
  percentage effect: -24%
GSK3BETA
  percentage effect: -9%
PI3 KINASE (P85A)
  percentage effect: 0%
FER
  percentage effect: 3%
PHKGAMMA2
  percentage effect: 2%
CK1GAMMA2
  percentage effect: -9%
ITK
  percentage effect: 2%
AXL
  percentage effect: -12%
HIPK1
  percentage effect: 0%
VRK2
  percentage effect: -3%
CLK3
  percentage effect: -19%
SGK2
  percentage effect: 38%
BLK
  percentage effect: -26%
CDK3/CYCLINE
  percentage effect: -5%
RON
  percentage effect: -11%
MEK1
  percentage effect: -9%
CDK2/CYCLINA
  percentage effect: -5%
PKBALPHA
  percentage effect: 4%
PLK1
  percentage effect: -6%
GCK
  percentage effect: 1%
PAK6
  percentage effect: 25%
PKD2
  percentage effect: -5%
PI3K DELTA
  percentage effect: -10%
ALK4
  percentage effect: 8%
IGF-1R
  percentage effect: 9%
JAK2
  percentage effect: 3%
MINK
  percentage effect: -13%
PRKX
  percentage effect: 6%
ZAP-70
  percentage effect: -6%
JAK3
  percentage effect: 14%
BRSK2
  percentage effect: 5%
CSK
  percentage effect: 7%
ACK1
  percentage effect: -10%
WNK3
  percentage effect: 4%
PKCBII
  percentage effect: -3%
TAO2
  percentage effect: -7%
CRAF
  percentage effect: 0%
EPHA7
  percentage effect: 1%
WNK2
  percentage effect: -3%
BMX
  percentage effect: 1%
PDK1
  percentage effect: -10%

## COC1CN(C(=O)c2ccc3c(N)ncc(-c4ccc(-c5cnn(C)c5)cc4)c3n2)C1 [Compound 51]
IGF-1R, ACTIVATED
  percentage effect: -18%
SRPK2
  percentage effect: 0%
HIPK2
  percentage effect: -8%
TSSK2
  percentage effect: 15%
PKBBETA
  percentage effect: 13%
GSK3BETA
  percentage effect: 1%
PI3 KINASE (P85A)
  percentage effect: -12%
FER
  percentage effect: -18%
PHKGAMMA2
  percentage effect: 10%
CK1GAMMA2
  percentage effect: -24%
ITK
  percentage effect: -6%
AXL
  percentage effect: 27%
HIPK1
  percentage effect: 5%
VRK2
  percentage effect: 4%
CLK3
  percentage effect: 2%
SGK2
  percentage effect: -46%
BLK
  percentage effect: 0%
CDK3/CYCLINE
  percentage effect: 4%
RON
  percentage effect: 15%
MEK1
  percentage effect: -18%
CDK2/CYCLINA
  percentage effect: 5%
PKBALPHA
  percentage effect: -11%
PLK1
  percentage effect: 1%
GCK
  percentage effect: -26%
PAK6
  percentage effect: -12%
PKD2
  percentage effect: -1%
PI3K DELTA
  percentage effect: -10%
ALK4
  percentage effect: 9%
IGF-1R
  percentage effect: 19%
JAK2
  percentage effect: -2%
MINK
  percentage effect: -11%
PRKX
  percentage effect: 43%
ZAP-70
  percentage effect: -3%
JAK3
  percentage effect: 2%
BRSK2
  percentage effect: 1%
CSK
  percentage effect: 21%
ACK1
  percentage effect: 0%
WNK3
  percentage effect: -9%
PKCBII
  percentage effect: -4%
TAO2
  percentage effect: -5%
CRAF
  percentage effect: -20%
EPHA7
  percentage effect: -4%
WNK2
  percentage effect: 18%
BMX
  percentage effect: -3%
PDK1
  percentage effect: -8%
